Values after ≈ are worked out from the molar mass of the structure shown. Like-named read-outs stand apart in the source and are kept apart here. Values belong to the compound of their own block, whether it stands above or below them.
Legend:
Assay type in all cases: physicochemical
[1] = Form stability analysis (solubility and concurrent slurry experiments)
Experimental: As form conversions tend to happen faster at elevated temperature at 60° C., slurries were performed for the starting material used for the screening (A/G mixture) during 18 h at 60° C.
Forms J and C were identified as potential non-solvates and their stability was investigated. Form J could be eliminated as stable form because, in part, the DSC (FIG. 36) indicated an exothermic form conversion around 140° C. This leads to a form melting at 210° C., which likely represents Form G and therefore represents a monotropic relation.
Form C was obtained by drying a Form C/J mixture. The XRPD pattern appeared to contain traces of reflexes of Form J. Slurries of Form C seeded with Form A (15% w/w) in ethanol and acetone were performed during 18 h. The resulting solid was pure Form A. This also confirmed the exothermic event observed in DSC (FIG. 16) which indicated a monotropic relation to the form formed in DSC around 130° C. (melting point 210° C., which, as described herein, is likely Form G).

[2] = Solubility of Forms A and G after 40 min stirring; settings: for solubility at 40 min: organic solvent or mixture, thermodynamic from solid
Experimental: (§1) For purity estimation and determination of the solubility in solution a generic in-house HPLC method was used. HPLC was performed using a Phenomenex Luna 3 μm C18 (50×4.6 mm) column and detected with a DAD detector, recording at 214 nm.

[3] = Slurry screening, solubility determined by HPLC; settings: thermodynamic from solid; for solubility at 5 days: slurry stirred 5 days; for Solubility: solution
Experimental: as §1
The slurry experiments were performed by taking approximately 40 mg starting material and slurrying in each of the solvent mixtures as detailed Table 3 using a magnetic stir bar. Solvents were chosen as described to have a high diversity (e.g., in polarity, protic/aprotic). The solvents were not necessarily selected for pharmaceutical suitability in regards to ICH guidelines. Only as much solvent or mixtures as needed to slurry/suspend the material was used—starting from 200 μL to a maximum of 2 mL. The slurries were stirred for 5 days. The suspensions were filtered and the filter cake slightly dried to not destroy potential solvates and subjected to XRPD. In case suspensions started to run through the filter the suspensions were dried using a nitrogen stream. As the solubility was tested in the solvents, the evaporated solvent provides a small amount of solid compared to the material suspended (i.e., the slurry form still should be dominant).

[4] = Solubility of Form A at 20° C. and 40° C.; settings: organic solvent or mixture, thermodynamic from solid
Experimental: as §1
To develop a Form A crystallization, a series of solubility data points was collected (Table 5). An amount of up to 15 mg was suspended in 150 μL and the mixture stirred for 2 days. Solubility was then determined by HPLC or by calculation if a solution was observed.

Solubility ([2]; EtOH, 0 ° C.): 7600 µg/mL (≈ 16.6 mM)
Solubility ([2]; EtOH, 22 ° C.): 15800 µg/mL (≈ 34.5 mM)
Solubility ([2]; EtOH, 60 ° C.): 36900 µg/mL (≈ 80.5 mM)
Solubility ([2]; MEK, 0 ° C.): 2600 µg/mL (≈ 5.67 mM)
Solubility ([2]; MEK, 22 ° C.): 3100 µg/mL (≈ 6.76 mM)
Solubility ([2]; MEK, 60 ° C.): 4600 µg/mL (≈ 10 mM)
Structure (SMILES): CCCN(CCC)C(=O)C1=Cc2ccc(-c3ccc(C(=O)N4CCCC4)cc3)cc2N=C(N)C1 [Form G, (1E, 4E)-2-amino-N,N-dipropyl-8-(4-(pyrrolidine-1-carbonyl)phenyl)-3H-benzo[b]azepine-4-carboxamide]
stability relative to other crystalline forms [1]: less stable at 25 °C in comparison to Form A

form of isolated solid after slurry ([1]; slurries during 18 h at 60° C.): pure Form A
solubility at 5 days ([3]; aqueous with cosolvent or surfactant or cyclodextrin, solvent EtOH/water 1/1): 3220 µg/mL (≈ 7.02 mM)
solubility at 5 days ([3]; aqueous with cosolvent or surfactant or cyclodextrin, solvent EtOH/water 3/1): 21000 µg/mL (≈ 45.7 mM)
solubility at 5 days ([3]; aqueous with cosolvent or surfactant or cyclodextrin, solvent IPA/water 3/1): 16900 µg/mL (≈ 36.8 mM)
solubility at 5 days ([3]; aqueous with cosolvent or surfactant or cyclodextrin, solvent ac/water 1/2): 480 µg/mL (≈ 1.05 mM)
Solubility ([3]; aqueous with cosolvent or surfactant or cyclodextrin, solvent HOAc/water 1/1): > 100000 µg/mL
solubility at 5 days ([3]; organic solvent or mixture, solvent 1-propanol): 12000 µg/mL (≈ 26.2 mM)
solubility at 5 days ([3]; organic solvent or mixture, solvent 2-Me-THF): 1030 µg/mL (≈ 2.25 mM)
solubility at 5 days ([3]; organic solvent or mixture, solvent 2-propanol): 6860 µg/mL (≈ 15 mM)
solubility at 5 days ([3]; organic solvent or mixture, solvent ACN): 810 µg/mL (≈ 1.77 mM)
solubility at 5 days ([3]; organic solvent or mixture, solvent DCM): > 70000 µg/mL
solubility at 5 days ([3]; organic solvent or mixture, solvent DMSO): 28800 µg/mL (≈ 62.8 mM)
solubility at 5 days ([3]; organic solvent or mixture, solvent EtOAc wet): 2690 µg/mL (≈ 5.87 mM)
solubility at 5 days ([3]; organic solvent or mixture, solvent MCH): 80 µg/mL (≈ 0.174 mM)
solubility at 5 days ([3]; organic solvent or mixture, solvent MEK): 3670 µg/mL (≈ 8 mM)
solubility at 5 days ([3]; organic solvent or mixture, solvent MIBK): 790 µg/mL (≈ 1.72 mM)
solubility at 5 days ([3]; organic solvent or mixture, solvent NMP): 52300 µg/mL (≈ 114 mM)
solubility at 5 days ([3]; organic solvent or mixture, solvent TBME): 160 µg/mL (≈ 0.349 mM)
solubility at 5 days ([3]; organic solvent or mixture, solvent THF): 5710 µg/mL (≈ 12.5 mM)
solubility at 5 days ([3]; organic solvent or mixture, solvent acetone): 1370 µg/mL (≈ 2.99 mM)
solubility at 5 days ([3]; organic solvent or mixture, solvent chlorobenzene): 1810 µg/mL (≈ 3.95 mM)
solubility at 5 days ([3]; organic solvent or mixture, solvent diethylether): 20 µg/mL (≈ 0.0436 mM)
solubility at 5 days ([3]; organic solvent or mixture, solvent dioxane): 5100 µg/mL (≈ 11.1 mM)
solubility at 5 days ([3]; organic solvent or mixture, solvent ethanol): 11600 µg/mL (≈ 25.3 mM)
solubility at 5 days ([3]; organic solvent or mixture, solvent ethyl acetate): 570 µg/mL (≈ 1.24 mM)
solubility at 5 days ([3]; organic solvent or mixture, solvent heptane): 20 µg/mL (≈ 0.0436 mM)
solubility at 5 days ([3]; organic solvent or mixture, solvent iPrOAc): 600 µg/mL (≈ 1.31 mM)
solubility at 5 days ([3]; organic solvent or mixture, solvent methanol): 29800 µg/mL (≈ 65.1 mM)
solubility at 5 days ([3]; organic solvent or mixture, solvent methyl acetate): 940 µg/mL (≈ 2.05 mM)
solubility at 5 days ([3]; organic solvent or mixture, solvent toluene): 450 µg/mL (≈ 0.981 mM)
Solubility ([3]; organic solvent or mixture, solvent trifluoroethanol): > 130000 µg/mL
solubility at 5 days ([3]; solvent water): 40 µg/mL (≈ 0.0872 mM)
Structure (SMILES): CCCN(CCC)C(=O)C1=Cc2ccc(-c3ccc(C(=O)N4CCCC4)cc3)cc2N=C(N)C1 [starting material, (1E, 4E)-2-amino-N,N-dipropyl-8-(4-(pyrrolidine-1-carbonyl)phenyl)-3H-benzo[b]azepine-4-carboxamide]

stability relative to other crystalline forms [1]: Form A is more stable than Form H
Structure (SMILES): CCCN(CCC)C(=O)C1=Cc2ccc(-c3ccc(C(=O)N4CCCC4)cc3)cc2N=C(N)C1 [Form H, (1E, 4E)-2-amino-N,N-dipropyl-8-(4-(pyrrolidine-1-carbonyl)phenyl)-3H-benzo[b]azepine-4-carboxamide]

stability relative to other crystalline forms [1]: more stable than Form G at 20 °C
thermodynamic stability of the crystalline form ([1]; from 0° C. to 60° C.): thermodynamically most stable form
solubility at 2 days ([4]; 2-PrOH, 20° C., stirred 2 days): 4500 µg/mL (≈ 9.81 mM)
solubility at 2 days ([4]; 2-PrOH, 40° C., stirred 2 days): 9590 µg/mL (≈ 20.9 mM)
solubility at 2 days ([4]; DMSO, 20° C., stirred 2 days): 21600 µg/mL (≈ 47.1 mM)
solubility at 2 days ([4]; DMSO, 40° C., stirred 2 days): 50900 µg/mL (≈ 111 mM)
solubility at 2 days ([4]; DMSO/EtOAc 1:1 v/v, 20° C., stirred 2 days): 15000 µg/mL (≈ 32.7 mM)
solubility at 2 days ([4]; DMSO/EtOAc 1:1 v/v, 40° C., stirred 2 days): 36900 µg/mL (≈ 80.5 mM)
solubility at 2 days ([4]; DMSO/TBME 1:1 v/v, 20° C., stirred 2 days): 17200 µg/mL (≈ 37.5 mM)
solubility at 2 days ([4]; DMSO/TBME 1:1 v/v, 40° C., stirred 2 days): 44600 µg/mL (≈ 97.3 mM)
solubility at 2 days ([4]; EtOH, 20° C., stirred 2 days): 8500 µg/mL (≈ 18.5 mM)
solubility at 2 days ([4]; EtOH, 40° C., stirred 2 days): 24000 µg/mL (≈ 52.3 mM)
solubility at 2 days ([4]; THF, 20° C., stirred 2 days): 3700 µg/mL (≈ 8.07 mM)
solubility at 2 days ([4]; THF, 40° C., stirred 2 days): 7700 µg/mL (≈ 16.8 mM)
solubility at 2 days ([4]; THF/EtOH 8:2 v/v, 20° C., stirred 2 days): 13400 µg/mL (≈ 29.2 mM)
solubility at 2 days ([4]; THF/EtOH 8:2 v/v, 40° C., stirred 2 days): 27800 µg/mL (≈ 60.6 mM)
solubility at 2 days ([4]; THF/H2O 8:2 v/v, 20° C., stirred 2 days): 38600 µg/mL (≈ 84.2 mM)
solubility at 2 days ([4]; THF/H2O 8:2 v/v, 40° C., clear solution with 10 vol of solvent mix): > 100000 µg/mL
solubility at 2 days ([4]; Toluene/2-PrOH 7:3 v/v, 20° C., stirred 2 days): 23100 µg/mL (≈ 50.4 mM)
solubility at 2 days ([4]; Toluene/2-PrOH 7:3 v/v, 40° C., stirred 2 days): 45900 µg/mL (≈ 100 mM)
solubility at 2 days ([4]; Toluene/MeOH 7:3 v/v, 20° C., clear solution with 10 vol of solvent mix): > 100000 µg/mL
solubility at 2 days ([4]; Toluene/MeOH 7:3 v/v, 40° C., clear solution with 10 vol of solvent mix): > 100000 µg/mL
Structure (SMILES): CCCN(CCC)C(=O)C1=Cc2ccc(-c3ccc(C(=O)N4CCCC4)cc3)cc2N=C(N)C1 [Form A, (1E, 4E)-2-amino-N,N-dipropyl-8-(4-(pyrrolidine-1-carbonyl)phenyl)-3H-benzo[b]azepine-4-carboxamide]

stability relative to other crystalline forms [1]: less stable than Forms A and G
form of resulting solid after slurry ([1]; seeded with Form A (15% w/w), slurries in ethanol and acetone during 18 h): pure Form A
Structure (SMILES): CCCN(CCC)C(=O)C1=Cc2ccc(-c3ccc(C(=O)N4CCCC4)cc3)cc2N=C(N)C1 [Form C, (1E, 4E)-2-amino-N,N-dipropyl-8-(4-(pyrrolidine-1-carbonyl)phenyl)-3H-benzo[b]azepine-4-carboxamide]

solubility at 40 min ([2]; EtOH, 0 °C): 4700 µg/mL (≈ 10.2 mM)
solubility at 40 min ([2]; EtOH, 22 °C): 11700 µg/mL (≈ 25.5 mM)
solubility at 40 min ([2]; EtOH, 60 °C): 32100 µg/mL (≈ 70 mM)
solubility at 40 min ([2]; MEK, 0 °C): 1800 µg/mL (≈ 3.92 mM)
solubility at 40 min ([2]; MEK, 22 °C): 2400 µg/mL (≈ 5.23 mM)
solubility at 40 min ([2]; MEK, 60 °C): 3700 µg/mL (≈ 8.07 mM)
Structure (SMILES): CCCN(CCC)C(=O)C1=Cc2ccc(-c3ccc(C(=O)N4CCCC4)cc3)cc2N=C(N)C1 [Compound A, (1E, 4E)-2-amino-N,N-dipropyl-8-(4-(pyrrolidine-1-carbonyl)phenyl)-3H-benzo[b]azepine-4-carboxamide]

stability relative to other crystalline forms [1]: less stable than Form A
stability relative to other crystalline forms ([1]; listed as J): less stable than Forms A and G
Structure (SMILES): CCCN(CCC)C(=O)C1=Cc2ccc(-c3ccc(C(=O)N4CCCC4)cc3)cc2N=C(N)C1 [Form J, (1E, 4E)-2-amino-N,N-dipropyl-8-(4-(pyrrolidine-1-carbonyl)phenyl)-3H-benzo[b]azepine-4-carboxamide]

From patent US10604510B2, “Solid forms comprising (1E, 4E)-2-amino-N,N-dipropyl-8-(4-(pyrrolidine-1-carbonyl)phenyl)-3H-benzo[B]azepine-4-carboxami compositions thereof, and uses thereof” (Celgene Corporation, priority 2014, dated 2020)
